Assay results published in PMC3295232 (Journal of the American Chemical Society, 2012).
Positions count from the first letter of the chain named. Where two headings read alike, the source gives them in different places.

How the values were obtained:
Assay in all cases: CD titration with propionylphosphinate
Assay type in all cases: binding
[1] = target: T1, YPDC (Saccharomyces cerevisiae, UniProt P06169); conditions: for Kd: pH 6.0, 25 °C
T1 sequence (P06169 1-563): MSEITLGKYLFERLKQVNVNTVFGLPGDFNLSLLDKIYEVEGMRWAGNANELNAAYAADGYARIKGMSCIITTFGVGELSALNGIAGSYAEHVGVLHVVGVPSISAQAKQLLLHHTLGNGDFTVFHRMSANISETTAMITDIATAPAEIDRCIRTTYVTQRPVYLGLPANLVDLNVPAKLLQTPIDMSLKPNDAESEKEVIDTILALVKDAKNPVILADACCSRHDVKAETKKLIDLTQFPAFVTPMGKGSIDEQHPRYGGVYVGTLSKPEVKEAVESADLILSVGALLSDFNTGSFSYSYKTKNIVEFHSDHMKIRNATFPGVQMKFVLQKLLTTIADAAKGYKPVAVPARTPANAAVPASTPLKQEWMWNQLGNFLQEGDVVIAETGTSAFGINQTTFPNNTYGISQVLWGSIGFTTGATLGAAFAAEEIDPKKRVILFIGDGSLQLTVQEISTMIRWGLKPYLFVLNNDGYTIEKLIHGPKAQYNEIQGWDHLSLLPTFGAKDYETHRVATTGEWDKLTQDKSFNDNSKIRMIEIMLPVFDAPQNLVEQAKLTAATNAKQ

[2] = target: T2, E91D YPDC (Saccharomyces cerevisiae, UniProt P06169, E91D); conditions: for Kd: pH 6.0, 25 °C
T2 sequence (P06169 1-563 E91D): T1 sequence (P06169 1-563) with E91D

[3] = target: T3, C221E/C222A YPDC (Saccharomyces cerevisiae, UniProt P06169, C221E/C222A); conditions: IP form of PPThDP
T3 sequence (P06169 1-563 C221E/C222A): T1 sequence (P06169 1-563) with C221E, C222A

[4] = target: T4, E51D YPDC (Saccharomyces cerevisiae, UniProt P06169, E51D)
T4 sequence (P06169 1-563 E51D): T1 sequence (P06169 1-563) with E51D

[5] = target: T5, E477Q YPDC (Saccharomyces cerevisiae, UniProt P06169, E477Q); conditions: pH 6.0, 25 °C
T5 sequence (P06169 1-563 E477Q): T1 sequence (P06169 1-563) with E477Q

[6] = target: T6, D28A YPDC (Saccharomyces cerevisiae, UniProt P06169, D28A); conditions: pH 6.0, 25 °C
T6 sequence (P06169 1-563 D28A): T1 sequence (P06169 1-563) with D28A

[7] = read-out: Kd^app (IP), 1′,4′-iminopyrimidine tautomer of PPThDP, CD band at 297 nm
[8] = read-out: Kd^app (MC), Michaelis complex, negative CD band at 330 nm

Structure (SMILES): CCC(=O)[PH](=O)[O-].[Na+] [PP, sodium propionylphosphinate]
- CD max (IP) ([1]; IP form of PPThDP, 297 nm): 15.8 ± 0.79 (IP) mdeg
- Kd [1, 7]: 7.82 ± 0.55 mM
- Kd [1, 8]: 9.1 ± 0.45 mM
- CD max (IP) ([2]; IP form of PPThDP, 297 nm): 7.6 ± 0.63 (IP) mdeg
- CD max (MC) ([2]; Michaelis complex, 330 nm): −2.85 ± 0.18 (MC) mdeg
- Kd [2, 7]: 7.02 ± 1.34 mM
- Kd [2, 8]: 8.02 ± 0.92 mM
- CD max (IP) [3]: 4.7 ± 0.77 (IP) mdeg
- CD max (IP) ([4]; IP form of PPThDP): 21.6 ± 0.54 (IP) mdeg
- Kd ([4]; read-out: Kd^app (IP), 1′,4′-iminopyrimidine tautomer of PPThDP, CD band at 297 nm, pH 6.0, 25 °C): 13.6 ± 0.35 mM
- Kd^app [5]: Not detected
- Kd^app [6]: Not detected
